Positions of bridges follow the written chain, without caps; N, C: chain ends. Non-standard residues stand in square brackets, D forms with d. Residues, ends and D or L forms follow the SMILES beside them.
Assays:
[1] = tested on: precontracted rabbit or rat aortic preparations; test: Vasorelaxant potency on precontracted aortic rings; settings: for IC50: thoracic aortic segments precontracted with histamine or norepinephrine, read-out: IC50 (concentration producing half-maximal relaxation of the precontracted tissue); for vasorelaxant potency in words: precontracted vascular preparations
Protocol: Synthetic ANVP compounds were compared to partially purified (gel filtration step) and purified (HPLC) native ANVP compounds (See FIGS. 3A-D) for their ability to relax histamine-contracted aortic rings. Rings were suspended in 10 ml aerated Kreb's buffer under 1.5 gm passive tension. Rings were precontracted with 5 X 10^-6 M histamine, washed and allowed to return to baseline tension, as described ([…]., supra). Increasing amounts of purified or synthetic ANVP compounds were then added in cumulative fashion. […] The relaxation effects of various ANVP compounds on precontracted rabbit or rat aortic preparations are shown in Table III. | Thoracic aortic segments were precontracted with histamine or | norepinephrine as previously described. Various doses of ANVP compounds | were then added and relaxation of the precontracted state was monitored. | Data are expressed as the concentration of each peptide required to | produce a halfmaximal relaxation of the precontracted tissue (IC50).

intact rats = test: Natriuretic and diuretic effects in intact rats (bolus injection); type: in vivo, rat
Protocol: Synthetic ANVP compounds […] hANVP(127-151) were also found to be natriuretic in the intact rat. These compounds were administered as a bolus injection to Inactin anesthetized rats (100 mg/kg, average weight 399 g) which were maintained on a constant infusion of normal saline at 2.2 ml/hr. […] Data are expressed as mean±SE.

| Structure (SMILES) | IC50 [1] | vasorelaxant potency in words [1] | Peak Na+ Excr. (intact rats; dose 367 pmol/kg) | Peak Urine Vol. (intact rats; dose 367 pmol/kg) | Peak Na+ Excr. (intact rats; dose 3670 pmol/kg) | Peak Urine Vol. (intact rats; dose 3670 pmol/kg) | diuresis and natriuresis in intact rats, in words (intact rats; Table VII doses) |
| --- | --- | --- | --- | --- | --- | --- | --- |
| CC[C@H](C)[C@@H]1NC(=O)[C@H](CCCNC(=N)N)NC(=O)[C@H](CC(=O)O)NC(=O)[C@H]([C@@H](C)CC)NC(=O)[C@H](CCCNC(=N)N)NC(=O)CNC(=O)CNC(=O)[C@H](Cc2ccccc2)NC(=O)[C@@H](NC(=O)[C@H](CO)NC(=O)[C@H](CO)NC(=O)[C@@H](N)CCCNC(=N)N)CSSC[C@@H](C(=O)N[C@@H](CC(N)=O)C(=O)N[C@@H](CO)C(=O)N[C@@H](Cc2ccccc2)C(=O)N[C@@H](CCCNC(=N)N)C(=O)N[C@@H](Cc2ccc(O)cc2)C(N)=O)NC(=O)CNC(=O)[C@H](CC(C)C)NC(=O)CNC(=O)[C@H](CO)NC(=O)[C@H](CCC(N)=O)NC(=O)[C@H](C)NC(=O)CNC1=O [rANVP(126-150)-NH2, H-Arg-Ser-Ser-Cys-Phe-Gly-Gly-Arg-Ile-Asp-Arg-Ile-Gly-Ala-Gln-Ser-Glyn-Leu- Gly-Cys-Asn-Ser-Phe-Arg-Tyr-NH2] | 0.8 nM | most potent | 57 µmol/min | 11.2 ± 1.6 µL/min |  |  |  |
| CC[C@H](C)[C@@H]1NC(=O)[C@H](CCCNC(=N)N)NC(=O)[C@H](CC(=O)O)NC(=O)[C@H]([C@@H](C)CC)NC(=O)[C@H](CCCNC(=N)N)NC(=O)[C@@H]2CCCN2C(=O)CNC(=O)[C@H](Cc2ccccc2)NC(=O)[C@@H](NC(=O)[C@H](CO)NC(=O)[C@H](CO)NC(=O)[C@@H](N)CCCNC(=N)N)CSSC[C@@H](C(=O)N[C@@H](CC(N)=O)C(=O)N[C@@H](CO)C(=O)N[C@@H](Cc2ccccc2)C(=O)N[C@@H](CCCNC(=N)N)C(=O)N[C@@H](Cc2ccc(O)cc2)C(=O)O)NC(=O)CNC(=O)[C@H](CC(C)C)NC(=O)CNC(=O)[C@H](CO)NC(=O)[C@H](CCC(N)=O)NC(=O)[C@H](C)NC(=O)CNC1=O [[Pro^132]rANVP(126-150), H-Arg-Ser-Ser-Cys-Phe-Gly-Pro-Arg-Ile-Asp-Arg-Ile-Gly-Ala-GLn-Ser-Gly-Leu-Gly-Cys-Asn-Ser-Phe-Arg-Tyr-OH] | 3.25 nM |  |  |  | 56 ± 20 µmol/min | 10.5 ± 2 µL/min |  |
| CC[C@H](C)[C@@H]1NC(=O)[C@H](CCCNC(=N)N)NC(=O)[C@H](CC(=O)O)NC(=O)[C@H]([C@@H](C)CC)NC(=O)[C@H](CCCNC(=N)N)NC(=O)[C@@H](C)NC(=O)CNC(=O)[C@H](Cc2ccccc2)NC(=O)[C@@H](NC(=O)[C@H](CO)NC(=O)[C@H](CO)NC(=O)[C@@H](N)CCCNC(=N)N)CSSC[C@@H](C(=O)N[C@@H](CC(N)=O)C(=O)N[C@@H](CO)C(=O)N[C@@H](Cc2ccccc2)C(=O)N[C@@H](CCCNC(=N)N)C(=O)N[C@@H](Cc2ccc(O)cc2)C(=O)O)NC(=O)CNC(=O)[C@H](CC(C)C)NC(=O)CNC(=O)[C@H](CO)NC(=O)[C@H](CCC(N)=O)NC(=O)[C@H](C)NC(=O)CNC1=O [[D-Ala^132]rANVP(126-150), H-Arg-Ser-Ser-Cys-Phe-Gly-[D-Ala]-Arg-Ile-Asp-Arg-Ile-Gly-Ala-Gln-Ser-Gly-Leu-Gly-Cys-Asn-Ser-Phe-Arg-Tyr-OH] |  |  |  |  | 20 ± 5 µmol/min | 89 µL/min |  |
| CC[C@H](C)[C@@H]1NC(=O)[C@H](CCCNC(=N)N)NC(=O)[C@H](CC(=O)O)NC(=O)[C@H]([C@@H](C)CC)NC(=O)[C@H](CCCNC(=N)N)NC(=O)CNC(=O)[C@@H](C)NC(=O)[C@H](Cc2ccccc2)NC(=O)[C@@H](NC(=O)[C@H](CO)NC(=O)[C@H](CO)NC(=O)[C@@H](N)CCCNC(=N)N)CSSC[C@@H](C(=O)N[C@@H](CC(N)=O)C(=O)N[C@@H](CO)C(=O)N[C@@H](Cc2ccccc2)C(=O)N[C@@H](CCCNC(=N)N)C(=O)N[C@@H](Cc2ccc(O)cc2)C(=O)O)NC(=O)CNC(=O)[C@H](CC(C)C)NC(=O)[C@@H](C)NC(=O)[C@H](CO)NC(=O)[C@H](CCC(N)=O)NC(=O)[C@H](C)NC(=O)CNC1=O [[D-Ala^131][D-Ala^142]rANVP(126-150), H-Arg-Ser-Ser-Cys-Phe-[D-Ala]Gly-Arg-Ile-Asp-Arg-Ile-Gly-Ala-Gln-Ser-[D-Ala]-Leu-Gly-Cys-Asn-Ser-Phe-Arg-Tyr-OH] (H-RSSCF[dA]GRIDRIGAQS[dA]LGCNSFRY-OH; disulfide 4-20) |  |  |  |  | 140 ± 8 µmol/min | 30 ± 7 µL/min |  |

More lines, main results first:

| IC50 [1] | Structure (SMILES) | vasorelaxant potency in words [1] | Peak Na+ Excr. (intact rats; dose 367 pmol/kg) | Peak Urine Vol. (intact rats; dose 367 pmol/kg) | Peak Na+ Excr. (intact rats; dose 3670 pmol/kg) | Peak Urine Vol. (intact rats; dose 3670 pmol/kg) | diuresis and natriuresis in intact rats, in words (intact rats; Table VII doses) |
| --- | --- | --- | --- | --- | --- | --- | --- |
| 13 nM | CC[C@H](C)[C@@H]1NC(=O)[C@H](CCCNC(=N)N)NC(=O)[C@H](CC(=O)O)NC(=O)[C@@H](C(C)C)NC(=O)[C@H](CCCNC(=N)N)NC(=O)CNC(=O)CNC(=O)[C@H](Cc2ccccc2)NC(=O)[C@@H](NC(=O)[C@H](CO)NC(=O)[C@H](CO)NC(=O)[C@@H](N)CCCNC(=N)N)CSSC[C@@H](C(=O)N[C@@H](CC(N)=O)C(=O)N[C@@H](CO)C(=O)N[C@@H](Cc2ccccc2)C(=O)N[C@@H](CCCNC(=N)N)C(=O)N[C@@H](Cc2ccc(O)cc2)C(=O)O)NC(=O)CNC(=O)[C@H](CC(C)C)NC(=O)CNC(=O)[C@H](CO)NC(=O)[C@H](CCC(N)=O)NC(=O)[C@H](C)NC(=O)CNC1=O [[D-Val^134]rANVP(126-150), H-Arg-Ser-Ser-Cys-Phe-Gly-Arg-[D-Val]-Asp-Arg-Ile-Gly-Ala-Gln-Ser-Gly-Leu-Gly-Cys-Asn-Ser-Phe-Arg-Tyr-OH] |  |  |  |  |  |  |
| 0.9 nM | CC[C@H](C)[C@@H]1NC(=O)[C@H](CCCNC(=N)N)NC(=O)[C@H](CC(=O)O)NC(=O)[C@H]([C@@H](C)CC)NC(=O)[C@H](CCCNC(=N)N)NC(=O)CNC(=O)[C@@H](C)NC(=O)[C@H](Cc2ccccc2)NC(=O)[C@@H](NC(=O)[C@H](CO)NC(=O)[C@H](CO)NC(=O)[C@@H](N)CCCNC(=N)N)CSSC[C@@H](C(=O)N[C@@H](CC(N)=O)C(=O)N[C@@H](CO)C(=O)N[C@@H](Cc2ccccc2)C(=O)N[C@@H](CCCNC(=N)N)C(=O)N[C@@H](Cc2ccc(O)cc2)C(=O)O)NC(=O)CNC(=O)[C@H](CC(C)C)NC(=O)CNC(=O)[C@H](CO)NC(=O)[C@H](CCC(N)=O)NC(=O)[C@H](C)NC(=O)CNC1=O [[D-Ala^131]rANVP(126-150), H-Arg-Ser-Ser-Cys-Phe-[D-Ala]-Gly-Arg-Ile-Asp-Arg-Ile-Gly-Ala-Gln-Ser-Gly-Leu-Gly-Cys-Asn-Ser-Phe-Arg-Tyr-OH] | most potent |  |  |  |  |  |
| 40 nM | CC[C@H](C)[C@@H]1NC(=O)[C@H](CCCNC(=N)N)NC(=O)CNC(=O)CNC(=O)[C@H](Cc2ccccc2)NC(=O)[C@@H](NC(=O)[C@H](CO)NC(=O)[C@H](CO)NC(=O)[C@@H](N)CCCNC(=N)N)CSSC[C@@H](C(=O)N[C@@H](CC(N)=O)C(=O)N[C@@H](CO)C(=O)N[C@@H](Cc2ccccc2)C(=O)N[C@@H](CCCNC(=N)N)C(=O)N[C@@H](Cc2ccc(O)cc2)C(=O)O)NC(=O)CNC(=O)[C@H](CC(C)C)NC(=O)CNC(=O)[C@H](CO)NC(=O)[C@H](CCC(N)=O)NC(=O)[C@H](C)NC(=O)CNC(=O)[C@@H](C(C)C)NC(=O)[C@H](CCCNC(=N)N)NC(=O)[C@H](CC(=O)O)NC1=O [[D-Val^137]rANVP(126-150), H-Arg-Ser-Ser-Cys-Phe-Gly-Gly-Arg-Ile-Asp-Arg-[D-Val]-Gly-Ala-Gln-Ser-Gly-Leu-Gly-Cys-Asn-Ser-Phe-Arg-Tyr-OH] |  |  |  | 0.54 ± 0.3 µmol/min | 9.5 ± 5 µL/min | exceptions |

From patent US5212286A, “Atrial Natriuretic/vasodilator peptide compounds” (Scios Nova Inc., priority 1986, dated 1993)
